Assay results taken from PMC8952214 (Pharmaceuticals, 2022).
pEC50: −log10 of the molar value. Like-named read-outs stand apart in the source and are kept apart here.

Columns and labels:
[1] = tested on: A/Parma/24/09 H1N1 (Brisbane-like) oseltamivir-resistant virus; conditions: Table 1; turkey erythrocytes; cited from earlier work
[2] = tested on: A/Parma/24/09 H1N1 (Brisbane-like) oseltamivir-resistant virus; conditions: MDCK cells, c.p.e. by neutral red, 48 h; cited from earlier work
[3] = tested on: A/Parma/24/09 H1N1 (Brisbane-like) oseltamivir-resistant virus; assay type: biochemical, Influenza A virus; conditions: Table 2; turkey erythrocytes; dash = not active
[4] = tested on: A/Parma/24/09 H1N1 (Brisbane-like) oseltamivir-resistant virus; assay: microbe, parasite or virus in culture; assay type: cell-based, Influenza A virus; conditions: for pEC50: Influenza A virus, H1N1, MDCK, 48 h, read-out: EC50 A/Parma H1N1

Cc1ccc(S(=O)(=O)NC(C)c2ccc(-n3ccnc3)cc2)cc1C (stereo not shown) [Compound 1]
HI Titer A/Parma H1N1 [1]: 0.48 µM | pEC50 [2]: 6.90

Fc1ccc(CNc2ncnc3[nH]cnc23)cc1 [Compound 2]
HI Titer A/Parma H1N1 [1]: 0.48 µM

COc1ccc(C(=O)Nc2cccc(S(=O)(=O)NCc3ccco3)c2)cc1 [Compound 3]
HI Titer A/Parma H1N1 [1]: 0.48 µM

Cc1ccc(F)cc1NC(=O)COC(=O)c1ccc2ccccc2n1 [Compound 4]
HI Titer A/Parma H1N1 [1]: 0.48 µM | pEC50 [2]: 6.90

Cc1ccc2nc(CNc3ccc(C)c(Cl)c3)cc(=O)n2c1 [Compound 5]
HI Titer A/Parma H1N1 [1]: 0.48 µM

O=C(CC1(O)C(=O)Nc2ccccc21)c1ccccn1 (stereo not shown) [Compound 6]
HI Titer A/Parma H1N1 [3]: 0.012 pM | SI (selectivity index) = CC50/EC50, A/Parma H1N1 [4]: 0.34 × 10^2 | pEC50 [4]: 6.05

N#Cc1ccc(NC(=O)COC(=O)c2ccccn2)cc1 [Compound 7]
HI Titer A/Parma H1N1 [3]: 0.012 pM | SI (selectivity index) = CC50/EC50, A/Parma H1N1 [4]: 0.34 × 10^2 | pEC50 [4]: 6.05

O=C(OCC(=O)N1CCc2ccccc21)c1ccccn1 [Compound 8]
HI Titer A/Parma H1N1 [3]: 0.012 pM

CN(C(=O)COC(=O)c1ccc2ccccc2n1)c1ccccc1 [Compound 9]
HI Titer A/Parma H1N1 [3]: 0.012 pM

CCc1ccc(NC(=O)C(C)OC(=O)c2ccc3ccccc3n2)cc1 (stereo not shown) [Compound 10]
HI Titer A/Parma H1N1 [3]: 0.012 pM

O=C(COC(=O)c1ccc2ccccc2n1)Nc1ccc2c(c1)OCCO2 [Compound 11]
HI Titer A/Parma H1N1 [3]: 0.012 pM

O=C(COC(=O)c1ccc2ccccc2n1)Nc1ccccc1-c1ccccc1 [Compound 12]
HI Titer A/Parma H1N1 [3]: 0.012 pM

Cc1ccc(NC(=O)COC(=O)c2ccccn2)cc1F [Compound 13]
HI Titer A/Parma H1N1 [3]: 0.012 pM | SI (selectivity index) = CC50/EC50, A/Parma H1N1 [4]: 0.44 × 10^2 | pEC50 [4]: 6.15

O=C(OCC(=O)N(c1ccccc1)C1CCCCC1)c1ccc2ccccc2n1 [Compound 14]
HI Titer A/Parma H1N1 [3]: 0.012 pM

CC(=O)Nc1ccc(S(=O)(=O)NC(C)c2ccc(-n3ccnc3)cc2)cc1 (stereo not shown) [Compound 16]
HI Titer A/Parma H1N1 [3]: 0.012 pM

CC(NS(=O)(=O)c1ccccc1)c1ccc(-c2ccccc2)cc1 (stereo not shown) [Compound 17]
HI Titer A/Parma H1N1 [3]: 0.012 pM

Nc1cc(F)ccc1C(=O)OCC(=O)Nc1ccccc1 [Compound 18]
HI Titer A/Parma H1N1 [3]: 0.012 pM

COc1ccc(NC(=O)COC(=O)c2ccc3c(c2)CCC(=O)N3)cc1 [Compound 19]
HI Titer A/Parma H1N1 [3]: 0.012 pM

O=C(COC(=O)c1ccccn1)Nc1ccc(-c2ccccc2)cc1 [Compound 20]
HI Titer A/Parma H1N1 [3]: 0.012 pM

O=C1CCCN1c1ccc(CNS(=O)(=O)c2ccc(F)cc2)cc1 [Compound 23]
HI Titer A/Parma H1N1 [3]: 0.012 pM

O=C(COC(=O)c1ccccn1)Nc1ccc2c(c1)CCC2 [Compound 24]
HI Titer A/Parma H1N1 [3]: 0.047 pM

COc1ccc(S(=O)(=O)NCc2ccc(-n3ccnc3)cc2)cc1F [Compound 25]
HI Titer A/Parma H1N1 [3]: 0.012 pM | SI (selectivity index) = CC50/EC50, A/Parma H1N1 [4]: 0.44 × 10^2 | pEC50 [4]: 6.15

Cc1nc(-c2cccc(NC(=O)COC(=O)c3ccc4ccccc4n3)c2)cs1 [Compound 26]
HI Titer A/Parma H1N1 [3]: 0.047 pM

Cc1ccc(S(=O)(=O)Nc2ccc(-n3ccnc3)c(Cl)c2)cc1 [Compound 28]
HI Titer A/Parma H1N1 [3]: 0.047 pM
